Data taken from patent publication US10858360B2, “Tricyclic gyrase inhibitors” (priority 2011, dated 2020).
≈ marks a conversion by molar mass, not a printed value.

Key:
Format in all cases: cell-based
[1] = test system: E. coli ATCC 25922; assay: MIC, E. coli ATCC 25922
[2] = test system: Y. pestis CO92 pgm-; assay: microbe, parasite or virus in culture; conditions: Yp = Y. pestis
[3] = test system: P. aeruginosa ATCC 15692; assay: MIC, P. aeruginosa ATCC 15692
[4] = test system: S. pneumoniae ATCC 51916; assay: MIC, S. pneumoniae ATCC 51916
[5] = test system: S. aureus ATCC 13709; assay: MIC, S. aureus ATCC 13709 (Alamar Blue broth microdilution)
[6] = test system: F. tularensis holarctica LVS; assay: microbe, parasite or virus in culture; conditions: Ft = F. tularensis; strain not given
[7] = test system: B. thailandensis ATCC E264; assay: microbe, parasite or virus in culture
[8] = test system: A. baumannii ATCC 19606; assay: MIC, A. baumannii ATCC 19606; conditions: strain not given
[9] = test system: K. pneumoniae ATCC 700603; assay: MIC, K. pneumoniae ATCC 700603; conditions: Kpn = K. pneumoniae
[10] = E. coli, Alamar Blue read after overnight incubation at 35° C.
[11] = S. aureus, Alamar Blue read after overnight incubation at 35° C.

CNc1cc(F)cc2c1[nH]c1nc(Oc3cnc(C)nc3)nc(N3C[C@H]4CCN[C@H]4C3)c12 [4.103]
MIC Ec [1, 10]: ≤0.5 µg/mL
MIC Ec ([1]; Ec = E. coli, strain not given): ≤0.5 µg/mL
MIC Yp [2]: ≤0.5 µg/mL
MIC Pa [3]: 2 µg/mL (≈ 4.6 µM)
MIC Spn [4]: ≤0.5 µg/mL
MIC Sa [5, 11]: ≤0.5 µg/mL
MIC Sa ([5]; Sa = S. aureus): ≤0.5 µg/mL
MIC Ft [6]: 1 µg/mL (≈ 2.3 µM)
MIC Bt [7]: ≤0.5 µg/mL
MIC Ab [8]: ≤0.5 µg/mL
MIC Kpn [9]: 2 µg/mL (≈ 4.6 µM)

CNc1cc(F)cc2c1[nH]c1nc(Oc3cnc(C)nc3)nc(N3CC4(CCC4N)C3)c12 (centres unmarked) [4.105]
MIC Ec ([1]; Ec = E. coli, strain not given): ≤0.5 µg/mL
MIC Yp [2]: ≤0.5 µg/mL
MIC Pa [3]: 1 µg/mL (≈ 2.3 µM)
MIC Spn [4]: ≤0.5 µg/mL
MIC Sa ([5]; Sa = S. aureus): ≤0.5 µg/mL
MIC Ft [6]: 1 µg/mL (≈ 2.3 µM)
MIC Bt [7]: ≤0.5 µg/mL
MIC Ab [8]: ≤0.5 µg/mL
MIC Kpn [9]: 2 µg/mL (≈ 4.6 µM)

CNc1cc(F)cc2c1[nH]c1nc(Oc3cnc(C)nc3)nc(N3CC4CC3C[C@@H]4N)c12 (some centres unmarked) [4.131]
MIC Ec [1, 10]: ≤0.5 µg/mL
MIC Ec ([1]; Ec = E. coli, strain not given): ≤0.5 µg/mL
MIC Yp [2]: ≤0.5 µg/mL
MIC Pa [3]: 1 µg/mL (≈ 2.3 µM)
MIC Spn [4]: ≤0.5 µg/mL
MIC Sa [5, 11]: ≤0.5 µg/mL
MIC Sa ([5]; Sa = S. aureus): ≤0.5 µg/mL
MIC Ft [6]: ≤0.5 µg/mL
MIC Bt [7]: ≤0.5 µg/mL
MIC Ab [8]: ≤0.5 µg/mL
MIC Kpn [9]: 2 µg/mL (≈ 4.6 µM)

CNc1cc(F)cc2c1[nH]c1nc(Oc3cnc(C)nc3)nc(N3CC4C(N)C4C3)c12 (centres unmarked) [4.073]
MIC Ec [1, 10]: ≤0.5 µg/mL
MIC Ec ([1]; Ec = E. coli, strain not given): ≤0.5 µg/mL
MIC Yp [2]: ≤0.5 µg/mL
MIC Pa [3]: 4 µg/mL (≈ 9.51 µM)
MIC Spn [4]: ≤0.5 µg/mL
MIC Sa [5, 11]: ≤0.5 µg/mL
MIC Sa ([5]; Sa = S. aureus): ≤0.5 µg/mL
MIC Ft [6]: 1 µg/mL (≈ 2.38 µM)
MIC Bt [7]: ≤0.5 µg/mL
MIC Ab [8]: ≤0.5 µg/mL
MIC Kpn [9]: 2 µg/mL (≈ 4.76 µM)

CNc1cc(F)cc2c1[nH]c1nc(Oc3cnc(C)nc3)nc(N3CC4CC(N)C4C3)c12 (centres unmarked) [4.084]
MIC Ec [1, 10]: ≤0.5 µg/mL
MIC Ec ([1]; Ec = E. coli, strain not given): ≤0.5 µg/mL
MIC Yp [2]: ≤0.5 µg/mL
MIC Pa [3]: 1 µg/mL (≈ 2.3 µM)
MIC Spn [4]: ≤0.5 µg/mL
MIC Sa [5, 11]: ≤0.5 µg/mL
MIC Sa ([5]; Sa = S. aureus): ≤0.5 µg/mL
MIC Ft [6]: ≤0.5 µg/mL
MIC Bt [7]: ≤0.5 µg/mL
MIC Ab [8]: ≤0.5 µg/mL
MIC Kpn [9]: 4 µg/mL (≈ 9.21 µM)
